Values after ≈ are worked out from the molar mass of the structure shown. Square brackets hold non-standard residues; d marks the D form. Ends that are not written are not given here. Peptide text beside a SMILES is read from it.
Key:
S. aureus RN4220 = assay type: cell-based, Staphylococcus aureus; details: antibiotic sensitive strain S. aureus RN4220
Procedure: (§1) Minimum inhibition concentrations (MICs) were determined against Escherichia coli (ATCC 25922), Staphylococcus aureus (ATCC 25923), Klebsiella pneumoniae (ATCC 10031) and Pseudomonas aeruginosa (ATCC 27853). Also clinical strains of E. coli, K. pneumoniae, E. cloacae, P. aeruginosa, Serratia marcescens, Proteus mirabilis, S. pneumoniae, Acinetobacter baumannii, A. johnsonii and S. aureus were used for MICs assays. Additionally, clinical strains of yeast including Candida albicans, C. glabrata, C. parapsilosis and C. quillermondiae were used. The susceptibility of these microorganisms to Chain peptides were determined using micro broth dilution assay. Colonies of the respective microorganism from Muller Hinton (MH) agar plates incubated overnight were suspended in MH broth media and final concentration of microorganism was adjusted to 5.0×10^5 cfu/ml. An aliquot of 10 μl of each Chain peptide, or gentamicin, tetracycline as reference antibiotics were added in differing concentrations along with 90 μl of bacterial suspension to 96 well polypropylene plates and incubated at 37° C. for 20 to 24 hours. Concentrations of Chain peptides and reference antibiotics ranged from 0.125 to 128 μg/ml and the MICs were recorded as the lowest concentration with no visual growth of bacteria. Similarly, antifungal MICs were tested in Potato dextrose broth.
(§2) Peptides Chain 104, Chain 105, Chain 201, Chain 308, Chain 310 were tested against antibiotic-sensitive strains of S. aureus RN4220 and methicillin resistant strains of S. aureus COL (MRSA). Chain peptides comprising of either L- or D-form amino acids were tested against these bacteria, and the D-form peptides were found have better activity compared to L-form (Table 6). Synergistic activity of chain peptides along with Ertapenem (4 μg/ml) was tested to know whether it will influence the activity against MRSA strains. […] Chain 310 has the best antibacterial activity against the MRSA strains with a MIC of 0.06 & 0.03 μg/ml along with Ertapenem (4 μg/ml) for both forms of L and D-peptides (Table 6).

S. aureus COL (MRSA) = assay type: cell-based, Staphylococcus aureus
Procedure: as §1, §2

[1] = system: MRSA strains (S. aureus COL); experiment: MIC, synergistic activity with Ertapenem (4 μg/ml); assay type: cell-based, Staphylococcus aureus; details: S. aureus COL, synergistic activity with 4 μg/ml Ertapenem
Procedure: as §1, §2

[2] = system: C. glabrata clinical strains; experiment: MIC, clinical yeast strains; assay type: cell-based, Candida glabrata; set-up: unit: µg/ml
Procedure: as §1
(§3) Clinical strains of yeasts including Candida albicans, C. glabrata, C. parapsilosis and C. quillermondiae were also tested with the 12 Chain peptides. The minimum inhibitory concentration (MICs) varied between these peptides and are presented in Tables 4a, 4b, 4c and 5a, 5b, 5c. Peptides Chain 105, 201 and 308 are broad spectrum antimicrobials with MICs between 0.5-32 μg/ml against all the bacteria and yeasts tested, except Serratia marcescens and Proteus mirabilis, against which the MICs were between 64-128 μg/ml. Peptide Chain 306 has narrow spectrum activity against E. coli at 1 μg/ml and for the rest of the bacterial strains at >32 μg/ml (FIG. 10c).

[3] = system: Pseudomonas aeruginosa clinical strains; assay type: cell-based; details: clinical strains
Procedure: as §1, §3

[4] = system: Klebsiella pneumoniae clinical strains; assay type: cell-based; details: clinical strains
Procedure: as §1, §3

[5] = system: Escherichia coli clinical strains; assay type: cell-based; details: clinical strains
Procedure: as §1, §3

[6] = system: C. quillermondiae clinical strains; experiment: MIC, clinical yeast strains; assay type: cell-based, Candida quillermondiae; set-up: unit: μg/ml; details: C. quillermondiae clinical yeast strain 1
Procedure: as §1, §3

[7] = system: Candida albicans clinical strains; experiment: MIC, clinical yeast strains; assay type: cell-based; set-up: unit: μg/ml
Procedure: as §1, §3

[8] = system: Proteus mirabilis clinical strains; assay type: cell-based; details: clinical strains
Procedure: as §1, §3

[9] = system: Serratia marcescens clinical strains; assay type: cell-based; details: clinical strains
Procedure: as §1, §3

[10] = system: Enterobacter cloacae clinical strains; assay type: cell-based; details: clinical strains
Procedure: as §1, §3

[11] = system: Staphylococcus aureus clinical strains; assay type: cell-based; details: clinical strains
Procedure: as §1, §3

[12] = system: Streptococcus pneumoniae clinical strains; assay type: cell-based; details: clinical strains
Procedure: as §1, §3

[13] = system: C. parapsilosis clinical strains; experiment: MIC, clinical yeast strains; assay type: cell-based, Candida parapsilosis; set-up: unit: µg/ml
Procedure: as §1, §3

CC[C@@H](C)[C@@H](NC(=O)[C@@H](Cc1c[nH]c2ccccc12)NC(=O)[C@H](N)CCCCN)C(=O)N[C@@H](C(=O)N[C@H](Cc1c[nH]c2ccccc12)C(=O)N[C@H](CCCNC(=N)N)C(=O)N[C@H](Cc1c[nH]c2ccccc12)C(=O)N[C@H](CCCNC(=N)N)C(=O)N[C@H](Cc1ccccc1)C(=O)N[C@H](CCCCN)C(=O)N[C@H](CCCNC(=N)N)C(=O)O)C(C)C [201 D] (H-[dK][dW][dI][dV][dW][dR][dW][dR][dF][dK][dR]-OH)
Minimum inhibitory concentration (MIC), S. aureus RN4220 (S. aureus RN4220): 2 µg/mL
Minimum inhibitory concentration (MIC), S. aureus COL (MRSA) (S. aureus COL (MRSA)): 2 µg/mL
Minimum inhibitory concentration (MIC), S. aureus COL + 4 μg/ml Ertapenem [1]: 1 µg/mL

CC(C)C[C@@H](NC(=O)[C@@H](CCCCN)NC(=O)[C@@H](Cc1c[nH]c2ccccc12)NC(=O)[C@@H](CCCCN)NC(=O)[C@@H](C)NC(=O)[C@@H](Cc1c[nH]cn1)NC(=O)[C@@H](CC(C)C)NC(=O)[C@@H](CCCNC(=N)N)NC(=O)[C@@H](Cc1c[nH]c2ccccc12)NC(=O)[C@H](N)Cc1c[nH]c2ccccc12)C(=O)N[C@H](Cc1c[nH]c2ccccc12)C(=O)O [Chain109D] (H-[dW][dW][dR][dL][dH][dA][dK][dW][dK][dL][dW]-OH)
Minimum inhibitory concentration ([2]; C. glabrata clinical yeast strain 1): 128
Minimum inhibitory concentration ([2]; C. glabrata clinical yeast strain 2): 128
Minimum inhibitory concentration ([2]; C. glabrata clinical yeast strain 3): 16
Minimum inhibitory concentration ([2]; C. glabrata clinical yeast strain 4): 64
MIC, Pseudomonas aeruginosa strain 1 [3]: 16 µg/mL (≈ 9.94 µM)
MIC, Pseudomonas aeruginosa strain 2 [3]: 16 µg/mL (≈ 9.94 µM)
MIC, Pseudomonas aeruginosa strain 3 [3]: 16 µg/mL (≈ 9.94 µM)
MIC, Pseudomonas aeruginosa strain 4 [3]: 16 µg/mL (≈ 9.94 µM)
MIC, Pseudomonas aeruginosa strain 5 [3]: 8 µg/mL (≈ 4.97 µM)
MIC, Klebsiella pneumoniae strain 1 [4]: 16 µg/mL (≈ 9.94 µM)
MIC, Klebsiella pneumoniae strain 2 [4]: 8 µg/mL (≈ 4.97 µM)
MIC, Klebsiella pneumoniae strain 3 [4]: 8 µg/mL (≈ 4.97 µM)
MIC, Klebsiella pneumoniae strain 4 [4]: 16 µg/mL (≈ 9.94 µM)
MIC, Klebsiella pneumoniae strain 5 [4]: 8 µg/mL (≈ 4.97 µM)
MIC, Escherichia coli strain 1 [5]: 16 µg/mL (≈ 9.94 µM)
MIC, Escherichia coli strain 2 [5]: 4 µg/mL (≈ 2.48 µM)
MIC, Escherichia coli strain 3 [5]: 4 µg/mL (≈ 2.48 µM)
MIC, Escherichia coli strain 4 [5]: 4 µg/mL (≈ 2.48 µM)
MIC, Escherichia coli strain 5 [5]: 4 µg/mL (≈ 2.48 µM)
Minimum inhibitory concentration [6]: 128
Minimum inhibitory concentration ([7]; Candida albicans clinical yeast strain 1): 128
Minimum inhibitory concentration ([7]; Candida albicans clinical yeast strain 2): 128
Minimum inhibitory concentration ([7]; Candida albicans clinical yeast strain 3): 128
Minimum inhibitory concentration ([7]; Candida albicans clinical yeast strain 4): 128
Minimum inhibitory concentration ([7]; Candida albicans clinical yeast strain 5): 128
MIC, Proteus mirabilis strain 1 [8]: >128 µg/mL
MIC, Proteus mirabilis strain 2 [8]: 64 µg/mL (≈ 39.8 µM)
MIC, Proteus mirabilis strain 3 [8]: 64 µg/mL (≈ 39.8 µM)
MIC, Proteus mirabilis strain 4 [8]: >128 µg/mL
MIC, Proteus mirabilis strain 5 [8]: >128 µg/mL
MIC, Serratia marcescens strain 1 [9]: >128 µg/mL
MIC, Serratia marcescens strain 2 [9]: >128 µg/mL
MIC, Serratia marcescens strain 3 [9]: >128 µg/mL
MIC, Serratia marcescens strain 4 [9]: >128 µg/mL
MIC, Serratia marcescens strain 5 [9]: 64 µg/mL (≈ 39.8 µM)
MIC, Enterobacter cloacae strain 1 [10]: 4 µg/mL (≈ 2.48 µM)
MIC, Enterobacter cloacae strain 2 [10]: 8 µg/mL (≈ 4.97 µM)
MIC, Enterobacter cloacae strain 3 [10]: 8 µg/mL (≈ 4.97 µM)
MIC, Enterobacter cloacae strain 4 [10]: 8 µg/mL (≈ 4.97 µM)
MIC, Enterobacter cloacae strain 5 [10]: 4 µg/mL (≈ 2.48 µM)
MIC, Staphylococcus aureus strain 1 [11]: 2 µg/mL (≈ 1.24 µM)
MIC, Staphylococcus aureus strain 2 [11]: 4 µg/mL (≈ 2.48 µM)
MIC, Staphylococcus aureus strain 3 [11]: 2 µg/mL (≈ 1.24 µM)
MIC, Staphylococcus aureus strain 4 [11]: 2 µg/mL (≈ 1.24 µM)
MIC, Staphylococcus aureus strain 5 [11]: 2 µg/mL (≈ 1.24 µM)
MIC, Streptococcus pneumoniae strain 1 [12]: 16 µg/mL (≈ 9.94 µM)
MIC, Streptococcus pneumoniae strain 2 [12]: 8 µg/mL (≈ 4.97 µM)
MIC, Streptococcus pneumoniae strain 3 [12]: 2 µg/mL (≈ 1.24 µM)
MIC, Streptococcus pneumoniae strain 4 [12]: 8 µg/mL (≈ 4.97 µM)
MIC, Streptococcus pneumoniae strain 5 [12]: 8 µg/mL (≈ 4.97 µM)
Minimum inhibitory concentration ([13]; C. parapsilosis clinical yeast strain 1): 128
Minimum inhibitory concentration ([13]; C. parapsilosis clinical yeast strain 2): 128
Minimum inhibitory concentration ([13]; C. parapsilosis clinical yeast strain 3): 128
Minimum inhibitory concentration ([13]; C. parapsilosis clinical yeast strain 4): 8

RLKWFLLFRKR [Compound 308]
Minimum inhibitory concentration (MIC), S. aureus RN4220 (S. aureus RN4220): >64 µg/mL
Minimum inhibitory concentration (MIC), S. aureus COL (MRSA) (S. aureus COL (MRSA)): >64 µg/mL
Minimum inhibitory concentration (MIC), S. aureus COL + 4 μg/ml Ertapenem [1]: 0.5 µg/mL

CC[C@@H](C)[C@@H](NC(=O)[C@@H](CCSC)NC(=O)[C@@H](C)NC(=O)[C@@H](CCCNC(=N)N)NC(=O)[C@@H](Cc1c[nH]c2ccccc12)NC(=O)[C@@H](CCCCN)NC(=O)[C@H](N)CCCNC(=N)N)C(=O)N[C@H](CCCNC(=N)N)C(=O)N[C@H](CC(C)C)C(=O)N[C@H](Cc1c[nH]cn1)C(=O)N[C@H](C)C(=O)N[C@H](CCCCN)C(=O)N[C@H](Cc1c[nH]c2ccccc12)C(=O)N[C@H](CC(C)C)C(=O)N[C@H](CCCNC(=N)N)C(=O)N[C@H](CCCCN)C(=O)O [105 D] (H-[dR][dK][dW][dR][dA][dM][dI][dR][dL][dH][dA][dK][dW][dL][dR][dK]-OH)
Minimum inhibitory concentration (MIC), S. aureus RN4220 (S. aureus RN4220): 16 µg/mL
Minimum inhibitory concentration (MIC), S. aureus COL (MRSA) (S. aureus COL (MRSA)): 8 µg/mL
Minimum inhibitory concentration (MIC), S. aureus COL + 4 μg/ml Ertapenem [1]: 2 µg/mL

RKWRAMIRLHAKWLRK [Compound 105]
Minimum inhibitory concentration (MIC), S. aureus RN4220 (S. aureus RN4220): >64 µg/mL
Minimum inhibitory concentration (MIC), S. aureus COL (MRSA) (S. aureus COL (MRSA)): >64 µg/mL
Minimum inhibitory concentration (MIC), S. aureus COL + 4 μg/ml Ertapenem [1]: 0.5 µg/mL

CC(C)C[C@@H](NC(=O)[C@@H](CCCCN)NC(=O)[C@@H](CCCCN)NC(=O)[C@@H](Cc1ccccc1)NC(=O)[C@@H](CC(C)C)NC(=O)[C@@H](Cc1c[nH]c2ccccc12)NC(=O)[C@@H](CCCNC(=N)N)NC(=O)[C@@H](Cc1c[nH]c2ccccc12)NC(=O)[C@@H](CCCCN)NC(=O)[C@@H](CCCNC(=N)N)NC(=O)[C@H](N)CCCCN)C(=O)O [310 D] (H-[dK][dR][dK][dW][dR][dW][dL][dF][dK][dK][dL]-OH)
Minimum inhibitory concentration (MIC), S. aureus RN4220 (S. aureus RN4220): >64 µg/mL
Minimum inhibitory concentration (MIC), S. aureus COL (MRSA) (S. aureus COL (MRSA)): >64 µg/mL
Minimum inhibitory concentration (MIC), S. aureus COL + 4 μg/ml Ertapenem [1]: <0.03 µg/mL

RKWRAMIRLHAKRLRK [Compound 104]
Minimum inhibitory concentration (MIC), S. aureus RN4220 (S. aureus RN4220): >64 µg/mL
Minimum inhibitory concentration (MIC), S. aureus COL (MRSA) (S. aureus COL (MRSA)): >64 µg/mL
Minimum inhibitory concentration (MIC), S. aureus COL + 4 μg/ml Ertapenem [1]: 0.25 µg/mL

CC(C)C[C@@H](NC(=O)[C@H](N)CCCNC(=N)N)C(=O)N[C@H](CCCCN)C(=O)N[C@H](Cc1c[nH]c2ccccc12)C(=O)N[C@H](Cc1ccccc1)C(=O)N[C@H](CC(C)C)C(=O)N[C@H](CC(C)C)C(=O)N[C@H](Cc1ccccc1)C(=O)N[C@H](CCCNC(=N)N)C(=O)N[C@H](CCCCN)C(=O)N[C@H](CCCNC(=N)N)C(=O)O [308 D] (H-[dR][dL][dK][dW][dF][dL][dL][dF][dR][dK][dR]-OH)
Minimum inhibitory concentration (MIC), S. aureus RN4220 (S. aureus RN4220): 4 µg/mL
Minimum inhibitory concentration (MIC), S. aureus COL (MRSA) (S. aureus COL (MRSA)): 4 µg/mL
Minimum inhibitory concentration (MIC), S. aureus COL + 4 μg/ml Ertapenem [1]: 1 µg/mL

KRKWRWLFKKL [Compound 310]
Minimum inhibitory concentration (MIC), S. aureus RN4220 (S. aureus RN4220): >64 µg/mL
Minimum inhibitory concentration (MIC), S. aureus COL (MRSA) (S. aureus COL (MRSA)): >64 µg/mL
Minimum inhibitory concentration (MIC), S. aureus COL + 4 μg/ml Ertapenem [1]: 0.06 µg/mL

KWIVWRWRFKR [Compound 201]
Minimum inhibitory concentration (MIC), S. aureus RN4220 (S. aureus RN4220): 64 µg/mL
Minimum inhibitory concentration (MIC), S. aureus COL (MRSA) (S. aureus COL (MRSA)): 64 µg/mL
Minimum inhibitory concentration (MIC), S. aureus COL + 4 μg/ml Ertapenem [1]: 0.5 µg/mL
